Patent US10738028B2, “Spiro three-membered ring, spiro five-membered ring peptide deformylase inhibitor and use thereof in antibacteria and anti-tumor” (priority 2016, dated 2020)

Experiments:
Format in all cases: cell-based
[1] = test system: methicillin-sensitive Staphylococcus epidermidis (MSSE); assay: MIC, two-fold agar dilution (CLSI), clinical isolates
Method in brief: (§1)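 Test samples were assayed by the CLSI-recommended two-fold agar dilution method, and the minimum inhibitory concentration against each tested strain was determined.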

[2] = test system: Enterococcus faecium (EFM); assay: as above
Method in brief: as §1

[3] = test system: methicillin-resistant Staphylococcus epidermidis (MRSE); assay: as above
Method in brief: as §1

[4] = test system: Streptococcus pneoumoniae (SPN); assay: as above
Method in brief: as §1

[5] = test system: methicillin-resistant Staphylococcus aureus (MRSA); assay: as above
Method in brief: as §1

[6] = test system: Escherichia coli (including ESBLs, non-ESBLs); assay: as above
Method in brief: as §1

[7] = test system: Moraxella catarrhalis (BCA); assay: as above
Method in brief: as §1

[8] = test system: Enterococcus faecalis (EFA); assay: as above
Method in brief: as §1

[9] = test system: methicillin-sensitive Staphylococcus aureus (MSSA); assay: as above
Method in brief: as §1

[10] = test system: HCT-116 colorectal cancer cell line; assay: CCK-8 proliferation inhibition; conditions: Homo sapiens, HCT-116, 72 h, concentration of 30 μM; 72 hours; CCK-8; read-out: HCT116 inhibition rate/%
Method in brief: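 Proliferation over 72 hours of compound treatment was measured with CCK-8 against a 1‰ DMSO control.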

O=C(C[C@@H](CC1CCCC1)C(=O)N1CC2(CC2)C[C@H]1C(=O)Nc1nncs1)NO [Example 74]
16 µg/mL: Anti-bacterial activity (MIC) ([2]; strain EFM 15-1) | Anti-bacterial activity (MIC) ([7]; strain BCA 14-5) | Anti-bacterial activity (MIC) ([8]; strain EFA 15-3)
2 µg/mL: Anti-bacterial activity (MIC), strain MSSA 15-5 ([9]; clinical isolate MSSA 15-5)
1%: inhibition at 30 µM [10]
32 µg/mL: Anti-bacterial activity (MIC) ([2]; strain EFM 15-2) | Anti-bacterial activity (MIC) ([2]; strain EFM 15-4) | Anti-bacterial activity (MIC) ([2]; strain EFM 15-6) | Anti-bacterial activity (MIC) ([4]; strain SPN 16-2) | Anti-bacterial activity (MIC), strain ECO+ 15-1 ([6]; clinical isolate ECO+ 15-1)
5 µg/mL: Anti-bacterial activity (MIC), strain MRSA 15-3 ([5]; clinical isolate MRSA 15-3)
1 µg/mL: Anti-bacterial activity (MIC), strain MSSE 15-3 ([1]; clinical isolate MSSE 15-3) | Anti-bacterial activity (MIC), strain MSSE 15-4 ([1]; clinical isolate MSSE 15-4) | Anti-bacterial activity (MIC), strain MSSE 15-5 ([1]; clinical isolate MSSE 15-5) | Anti-bacterial activity (MIC), strain MSSE 15-6 ([1]; clinical isolate MSSE 15-6) | Anti-bacterial activity (MIC), strain MRSE 15-2 ([3]; clinical isolate MRSE 15-2) | Anti-bacterial activity (MIC), strain MRSE 15-3 ([3]; clinical isolate MRSE 15-3)
8 µg/mL: Anti-bacterial activity (MIC), strain MRSA 15-2 ([5]; clinical isolate MRSA 15-2) | Anti-bacterial activity (MIC), strain MRSA 15-4 ([5]; clinical isolate MRSA 15-4)
4 µg/mL: Anti-bacterial activity (MIC) ([2]; strain EFM 15-3) | Anti-bacterial activity (MIC) ([2]; strain EFM 15-5) | Anti-bacterial activity (MIC), strain MRSE 15-7 ([3]; clinical isolate MRSE 15-7) | Anti-bacterial activity (MIC) ([4]; strain SPN 16-4) | Anti-bacterial activity (MIC), strain MRSA 15-1 ([5]; clinical isolate MRSA 15-1) | Anti-bacterial activity (MIC), strain MSSA 15-3 ([9]; clinical isolate MSSA 15-3) | Anti-bacterial activity (MIC), strain MSSA 15-4 ([9]; clinical isolate MSSA 15-4) | Anti-bacterial activity (MIC), strain MSSA 15-6 ([9]; clinical isolate MSSA 15-6)
> 32 µg/mL: Anti-bacterial activity (MIC), strain ECO+ 15-2 ([6]; clinical isolate ECO+ 15-2) | Anti-bacterial activity (MIC), strain ECO+ 15-3 ([6]; clinical isolate ECO+ 15-3) | Anti-bacterial activity (MIC), strain ECO+ 15-4 ([6]; clinical isolate ECO+ 15-4) | Anti-bacterial activity (MIC), strain ECO− 15-1 ([6]; clinical isolate ECO− 15-1) | Anti-bacterial activity (MIC), strain ECO− 15-2 ([6]; clinical isolate ECO− 15-2) | Anti-bacterial activity (MIC), strain ECO− 15-3 ([6]; clinical isolate ECO− 15-3) | Anti-bacterial activity (MIC), strain ECO− 15-4 ([6]; clinical isolate ECO− 15-4) | Anti-bacterial activity (MIC) ([7]; strain BCA 14-1) | Anti-bacterial activity (MIC) ([7]; strain BCA 14-4) | Anti-bacterial activity (MIC) ([7]; strain BCA 14-6) | Anti-bacterial activity (MIC) ([7]; strain BCA 14-7) | Anti-bacterial activity (MIC) ([7]; strain BCA 14-8) | Anti-bacterial activity (MIC) ([7]; strain BCA 14-10) | Anti-bacterial activity (MIC) ([8]; strain EFA 15-1) | Anti-bacterial activity (MIC) ([8]; strain EFA 15-2) | Anti-bacterial activity (MIC) ([8]; strain EFA 15-4) | Anti-bacterial activity (MIC) ([8]; strain EFA 15-5) | Anti-bacterial activity (MIC) ([8]; strain EFA 15-6) | Anti-bacterial activity (MIC) ([8]; strain EFA 15-9)
0.5 µg/mL: Anti-bacterial activity (MIC), strain MRSE 15-1 ([3]; clinical isolate MRSE 15-1)

CCCC[C@H](CC(=O)NO)C(=O)N1CC2(CCCC2)C[C@H]1C(=O)Nc1cc(C)on1 [Example 80, (S)-2-((R)-2-(2-(hydroxyamino)-2-oxoethyl)hexanoyl)-N-(5-methylisoxazol-3-yl)-2-spiro[4.4]nonane-3-carboxamide]
1 µg/mL: Anti-bacterial activity (MIC) ([1]; strain MSSE 15-3) | Anti-bacterial activity (MIC) ([5]; strain MRSA 15-1) | Anti-bacterial activity (MIC) ([5]; strain MRSA 15-3) | Anti-bacterial activity (MIC) ([9]; strain MSSA 15-4) | Anti-bacterial activity (MIC) ([9]; strain MSSA 15-6)
4 µg/mL: Anti-bacterial activity (MIC) ([2]; strain EFM 15-2) | Anti-bacterial activity (MIC) ([2]; strain EFM 15-4) | Anti-bacterial activity (MIC) ([4]; strain SPN 16-4) | Anti-bacterial activity (MIC) ([7]; strain BCA 14-7) | Anti-bacterial activity (MIC) ([7]; strain BCA 14-10)
0.5 µg/mL: Anti-bacterial activity (MIC) ([3]; strain MRSE 15-2) | Anti-bacterial activity (MIC) ([3]; strain MRSE 15-3) | Anti-bacterial activity (MIC) ([9]; strain MSSA 15-5)
8 µg/mL: Anti-bacterial activity (MIC) ([2]; strain EFM 15-1) | Anti-bacterial activity (MIC) ([2]; strain EFM 15-3) | Anti-bacterial activity (MIC) ([2]; strain EFM 15-6) | Anti-bacterial activity (MIC) ([4]; strain SPN 16-2) | Anti-bacterial activity (MIC) ([7]; strain BCA 14-1) | Anti-bacterial activity (MIC) ([7]; strain BCA 14-4) | Anti-bacterial activity (MIC) ([7]; strain BCA 14-6) | Anti-bacterial activity (MIC) ([7]; strain BCA 14-8) | Anti-bacterial activity (MIC) ([8]; strain EFA 15-3)
11%: inhibition at 30 µM [10]
> 16 µg/mL: Anti-bacterial activity (MIC) ([6]; strain ECO+ 15-1) | Anti-bacterial activity (MIC) ([6]; strain ECO+ 15-3) | Anti-bacterial activity (MIC) ([6]; strain ECO+ 15-4) | Anti-bacterial activity (MIC) ([6]; strain ECO− 15-1) | Anti-bacterial activity (MIC) ([6]; strain ECO− 15-2) | Anti-bacterial activity (MIC) ([6]; strain ECO− 15-3) | Anti-bacterial activity (MIC) ([6]; strain ECO− 15-4) | Anti-bacterial activity (MIC) ([8]; strain EFA 15-2) | Anti-bacterial activity (MIC) ([8]; strain EFA 15-4) | Anti-bacterial activity (MIC) ([8]; strain EFA 15-5) | Anti-bacterial activity (MIC) ([8]; strain EFA 15-6) | Anti-bacterial activity (MIC) ([8]; strain EFA 15-9)
2 µg/mL: Anti-bacterial activity (MIC) ([2]; strain EFM 15-5) | Anti-bacterial activity (MIC) ([3]; strain MRSE 15-7) | Anti-bacterial activity (MIC) ([5]; strain MRSA 15-2) | Anti-bacterial activity (MIC) ([5]; strain MRSA 15-4) | Anti-bacterial activity (MIC) ([7]; strain BCA 14-5) | Anti-bacterial activity (MIC) ([9]; strain MSSA 15-3)
0.25 µg/mL: Anti-bacterial activity (MIC) ([1]; strain MSSE 15-4) | Anti-bacterial activity (MIC) ([1]; strain MSSE 15-5) | Anti-bacterial activity (MIC) ([1]; strain MSSE 15-6) | Anti-bacterial activity (MIC) ([3]; strain MRSE 15-1)
16 µg/mL: Anti-bacterial activity (MIC) ([6]; strain ECO+ 15-2) | Anti-bacterial activity (MIC) ([8]; strain EFA 15-1)
